Like-named read-outs stand apart in the source and are kept apart here.
Columns and labels:
Experiment in all cases: in vitro
P-gp = P-gp (Homo sapiens, UniProt P08183)
MATE1 = biological target: T1, MATE1 (Homo sapiens, UniProt Q96FL8)
T1 sequence (Q96FL8 1-570): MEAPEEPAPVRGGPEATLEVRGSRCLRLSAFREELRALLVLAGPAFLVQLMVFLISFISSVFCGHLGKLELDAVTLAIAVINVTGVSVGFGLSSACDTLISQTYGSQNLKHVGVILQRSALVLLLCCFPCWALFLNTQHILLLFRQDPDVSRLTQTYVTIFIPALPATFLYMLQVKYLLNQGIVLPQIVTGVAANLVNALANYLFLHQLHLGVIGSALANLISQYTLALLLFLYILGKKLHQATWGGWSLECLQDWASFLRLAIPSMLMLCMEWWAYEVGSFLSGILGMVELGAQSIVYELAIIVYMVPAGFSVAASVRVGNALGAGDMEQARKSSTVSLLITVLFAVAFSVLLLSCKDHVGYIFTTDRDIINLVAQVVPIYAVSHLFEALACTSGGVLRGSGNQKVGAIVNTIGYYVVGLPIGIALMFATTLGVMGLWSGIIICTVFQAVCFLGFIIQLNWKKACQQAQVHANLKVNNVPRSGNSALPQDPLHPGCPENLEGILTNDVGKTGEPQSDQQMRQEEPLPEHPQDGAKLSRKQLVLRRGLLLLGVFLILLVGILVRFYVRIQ

OATP1B1 = OATP1B1 (Homo sapiens, UniProt Q9Y6L6)
OATP1B1, sequence (Q9Y6L6 whole entry): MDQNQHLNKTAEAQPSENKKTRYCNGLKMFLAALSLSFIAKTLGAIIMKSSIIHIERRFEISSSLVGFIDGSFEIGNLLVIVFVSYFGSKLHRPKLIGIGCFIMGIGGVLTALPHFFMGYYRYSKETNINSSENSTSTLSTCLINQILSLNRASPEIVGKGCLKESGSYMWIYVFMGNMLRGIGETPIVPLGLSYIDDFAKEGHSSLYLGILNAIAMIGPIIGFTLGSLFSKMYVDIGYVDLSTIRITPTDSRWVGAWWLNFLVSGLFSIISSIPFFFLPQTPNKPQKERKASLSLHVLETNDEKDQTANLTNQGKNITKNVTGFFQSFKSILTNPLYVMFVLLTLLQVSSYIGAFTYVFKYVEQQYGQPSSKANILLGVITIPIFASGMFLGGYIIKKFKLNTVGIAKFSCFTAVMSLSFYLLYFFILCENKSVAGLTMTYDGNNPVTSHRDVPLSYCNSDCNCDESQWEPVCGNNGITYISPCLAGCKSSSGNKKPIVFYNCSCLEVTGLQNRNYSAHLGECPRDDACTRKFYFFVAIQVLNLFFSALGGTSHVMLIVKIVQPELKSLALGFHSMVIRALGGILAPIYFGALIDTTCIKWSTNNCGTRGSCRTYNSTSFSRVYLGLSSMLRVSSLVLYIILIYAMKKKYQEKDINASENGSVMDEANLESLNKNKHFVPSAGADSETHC

CYP1A2 mRNA = settings: human
CYP2B6 mRNA = settings: human

P-gp, sequence (P08183 whole entry): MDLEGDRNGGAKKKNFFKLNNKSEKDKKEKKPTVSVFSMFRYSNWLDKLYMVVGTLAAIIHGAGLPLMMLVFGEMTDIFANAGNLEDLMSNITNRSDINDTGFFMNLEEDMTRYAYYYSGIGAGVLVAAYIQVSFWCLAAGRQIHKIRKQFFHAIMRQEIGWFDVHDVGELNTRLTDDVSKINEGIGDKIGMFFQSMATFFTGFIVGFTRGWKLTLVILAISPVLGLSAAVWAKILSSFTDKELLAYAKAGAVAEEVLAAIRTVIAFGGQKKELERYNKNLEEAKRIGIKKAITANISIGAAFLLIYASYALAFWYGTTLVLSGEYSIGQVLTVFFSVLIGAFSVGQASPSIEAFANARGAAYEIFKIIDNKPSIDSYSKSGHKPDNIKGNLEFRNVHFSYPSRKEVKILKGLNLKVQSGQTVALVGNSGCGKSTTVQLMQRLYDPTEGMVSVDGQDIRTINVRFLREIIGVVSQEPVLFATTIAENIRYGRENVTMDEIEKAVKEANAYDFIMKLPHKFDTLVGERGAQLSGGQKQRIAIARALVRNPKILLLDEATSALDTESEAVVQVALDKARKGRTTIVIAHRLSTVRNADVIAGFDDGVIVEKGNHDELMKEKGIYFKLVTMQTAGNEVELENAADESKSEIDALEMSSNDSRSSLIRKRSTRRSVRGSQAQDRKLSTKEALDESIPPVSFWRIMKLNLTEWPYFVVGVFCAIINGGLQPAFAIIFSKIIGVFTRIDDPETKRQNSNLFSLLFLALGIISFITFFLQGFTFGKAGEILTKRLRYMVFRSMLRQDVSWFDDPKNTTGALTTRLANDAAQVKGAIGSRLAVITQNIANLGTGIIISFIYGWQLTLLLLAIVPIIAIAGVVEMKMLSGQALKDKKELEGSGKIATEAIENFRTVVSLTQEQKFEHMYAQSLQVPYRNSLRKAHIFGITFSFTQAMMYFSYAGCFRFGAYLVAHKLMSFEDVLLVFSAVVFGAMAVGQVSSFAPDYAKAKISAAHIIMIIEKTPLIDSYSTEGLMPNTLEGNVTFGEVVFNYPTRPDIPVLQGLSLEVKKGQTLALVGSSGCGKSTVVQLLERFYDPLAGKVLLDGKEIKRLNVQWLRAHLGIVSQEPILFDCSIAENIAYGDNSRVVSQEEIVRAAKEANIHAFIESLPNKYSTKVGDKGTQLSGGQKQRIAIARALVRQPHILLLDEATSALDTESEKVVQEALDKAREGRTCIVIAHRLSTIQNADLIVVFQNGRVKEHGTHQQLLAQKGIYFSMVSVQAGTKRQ

Compound: C[C@H](CCC(=O)NCC(=O)O)[C@H]1CC[C@H]2[C@@H]3[C@@H](O)C[C@@H]4C[C@H](O)CC[C@]4(C)[C@H]3CC[C@]12C [Glycoursodeoxycholic acid, glycoursodeoxycholic acid]
- potency estimated from few doses (P-gp; Caco-2 cells, probe 3H-digoxin): < 10 µM
- potency estimated from few doses (MATE1): > 100 µM
- potency estimated from few doses (OATP1B1): ~10 µM
- EC50 at 72 h (CYP1A2 mRNA; hepatocyte cultures): 1.88 µM
- fold induction at 72 h (CYP1A2 mRNA; hepatocyte cultures): 12.2
- EC50 at 72 h (CYP2B6 mRNA; hepatocyte cultures): 1.74 µM
- fold induction at 72 h (CYP2B6 mRNA; hepatocyte cultures): 5.83

Compound: O=C(O)Cc1ccccc1 [Phenylacetic acid, phenylacetic acid]
- potency estimated from few doses (P-gp): > 7500 µM
- potency estimated from few doses (OATP1B1): > 7500 µM
- EC50 at 72 h (CYP1A2 mRNA): 8.18 µM
- EC50 at 72 h (CYP2B6 mRNA): 19.5 µM

— US20240139211A1, “METHODS AND COMPOSITIONS FOR TREATING AMYOTROPHIC LATERAL SCLEROSIS” (Amylyx Pharmaceuticals, Inc., priority 2022, published 2024)
